This is an account of results in US12103936B2, “Crystal form of hepatitis B surface antigen inhibitor” (FUJIAN AKEYLINK BIOTECHNOLOGY CO., LTD., priority 2018, dated 2024).

In experiment [1] the test system is HBsAg. The experiment in a line: In vivo efficacy study in AAV/HBV mice model, HBsAg content in serum. Also noted: species or system C57BL/6 mice. The conditions noted are these: PO. An excerpt:
C57BL/6 mice, 10% HP-β-CD as vehicle, TDF ([…]) as refer compound, the compound of formula (I), and recombinant virus rAAV8-1.3HBV.
The reagents of the present project mainly included QIAamp96 DNA kit and TaqMan® Universal PCR Master Mix, hepatitis B surface antigen test kit.
The instrument included centrifuge (Beckman Allegra X-15R), tissue grinder (QIAGEN-Tissue lyser II) and spectrophotometer (Thermo-NANODROP 1000).
• a) All mice were administrated orally on the day 28 after being injected with virus, the day of administration was designated as day 0. Before administration, serum was collected by submandibular blood sampling for all mice. The mice were administration once a day for four weeks. The detailed dosage regimen was shown in Table 3. • b) Serum was collected by submandibular blood sampling for all mice twice a week, with each sampling volume being approximately 100 μL. The detailed blood sampling time is shown in Table 3. • c) On the day 28, all mice were euthanized and the blood was collected from the heart for serum collection. • d) All serum samples were sent for analysis.
The anti-HBV activity of the test compound in AAV/HBV mice model was evaluated by determining the content of HBsAg in the serum of the mice.

The next experiment relates to surface antigens. The conditions noted are these: woodchuck model, single drug; cited from earlier work.
Experiment [2] concerns HBV-DNA. The note with it: woodchuck model, single drug; cited from earlier work.
Experiment [3] deals with HBV-DNA. Put plainly: HBV in vitro test in HepG2.2.15 cells, HBV-DNA by quantitative PCR. Format: cell-based. The conditions noted are these: Hepatitis B virus, 192 h, culture medium collected on day 8, read-out: EC50 against HBV-DNA. How it is done:
(§1) 1. Cell Line: HepG2.2.15 Cells
(§2) • Pancreatin (Invitrogen-25300062) • DPBS (Corning-21031CVR) • DMSO (Sigma-D2650-100 mL) • High-throughput DNA purification kit (QIAamp 96 DNA Blood Kit, Qiagen-51162) • Quantitative quick start universal probe reagent (FastStart Universal Probe Master, Roche-04914058001) • Hepatitis B surface antigen quantitative test kit (Autobio, CL0310) 3. Consumables and Instruments: • 96-well cell culture plate (Cornin-3599) • CO2 incubator (HERA-CELL-240) • Optical sealing film (ABI-4311971) • Quantitative PCR 96-well plate (Applied Biosystems-4306737) • Fluorescence quantitative PCR instrument (Applied Biosystems-7500 real time PCR system) Experimental Methods: • 1. HepG2.2.15 cells (4×10^4 cells/well) were seeded to a 96-well plate and cultured overnight at 37° C., 5% CO2. • 2. On the day 2, the compound was diluted to a total of 8 concentrations, with a 3-fold gradient dilution. Different concentrations of compounds were added into the culture wells in duplicate wells. The final concentration of DMSO in the culture medium was 0.5%. 10 μM ETV (Entecavir) was used as a 100% inhibition control; 0.5% DMSO was used as a 0% inhibition control. • 3. […]
(§3) 50 μL of sample and standard were added into a reaction plate respectively, followed by addition of 50 μL of enzyme conjugate into each well. […] Chemoluminescence intensity was determined by an ELISA finally. • 9.

Experiment [4] concerns HBsAg. The experiment in a line: HBV in vitro test in HepG2.2.15 cells, hepatitis B surface antigen by ELISA. The conditions noted are these: Hepatitis B virus, HepG2.2.15, 192 h, read-out: EC50 against HBsAg. Type of experiment: cell-based. As for the experimental part: as §1, §2, §3
On the technique in general: ELISA stands for enzyme-linked immunosorbent assay.

The mark [5] stands for this setting: 10 mg/kg, detection date day 11.
[6] abbreviates: 10 mg/kg, detection date day 14.
Where [7] appears, read: 10 mg/kg, detection date day 18.
[8] abbreviates: 10 mg/kg, detection date day 21.
The mark [9] stands for this setting: 10 mg/kg, detection date day 25.
Setting [10] is: 10 mg/kg, detection date day 28.
The mark [11] stands for this setting: 10 mg/kg, detection date day -1.

In the case of `COCCCOc1cc2c(cc1OC)-c1cc(=O)c(C(=O)O)cn1[C@H](C(C)C)C2` [RG7834, reference compound], the “HBsAg content in mice” value amounted to 3.54 IU/mL in the experiment on HBsAg [1] (10 mg/kg, detection date day 4); 3.58 IU/mL with HBsAg [1] (10 mg/kg, detection date day 7); 3.70 IU/mL with HBsAg [1] (setting [5]); 3.49 IU/mL in the experiment on HBsAg [1] (setting [6]); 3.70 IU/mL with HBsAg [1] (setting [7]); 3.52 IU/mL in the experiment with HBsAg [1] (setting [8]). Besides, the “HBsAg content in mice” value in the experiment with HBsAg [1] (setting [9]) was 3.50 IU/mL; in the experiment on HBsAg [1] (setting [10]), 3.66 IU/mL; with HBsAg [1] (setting [11]), 4.56 IU/mL. Also, in the experiment on surface antigens, the “reduction of surface antigens” value is on record as 2.57 Log. Also, the “reduction of HBV-DNA” value with HBV-DNA [2] is reported as 1.7 Log.
Broadly, the EC50 is the concentration needed to bring the measured effect to its halfway point. Regarding `COCCCOc1cc2c(cc1OC)-c1cc(=O)c(C(=O)O)cn1[C@H](C(C)(C)C)CO2` [the compound of formula (I)], the EC50 with HBV-DNA [3] came to 2.55 nM; with HBsAg [4], 3.88 nM. In addition, the “HBsAg content in mice” value in the experiment on HBsAg [1] (3 mg/kg, detection date day 4) turned out to be 3.68 IU/mL; with HBsAg [1] (3 mg/kg, detection date day 7), 3.70 IU/mL; with HBsAg [1] (3 mg/kg, detection date day 11) it was 3.76 IU/mL; in the experiment with HBsAg [1] (3 mg/kg, detection date day 14), 3.70 IU/mL; with HBsAg [1] (3 mg/kg, detection date day 18), 3.85 IU/mL; in the experiment on HBsAg [1] (3 mg/kg, detection date day 21) it was 3.78 IU/mL. Also, the “HBsAg content in mice” value in the experiment on HBsAg [1] (3 mg/kg, detection date day 25) is 3.76 IU/mL; in the experiment on HBsAg [1] (3 mg/kg, detection date day 28), 3.96 IU/mL; with HBsAg [1] (3 mg/kg, detection date day -1) it was 4.54 IU/mL; in the experiment on HBsAg [1] (10 mg/kg, detection date day 4) it was 3.56 IU/mL; in the experiment on HBsAg [1] (10 mg/kg, detection date day 7) it was 3.69 IU/mL; in the experiment on HBsAg [1] (setting [5]), 3.92 IU/mL. Besides, the “HBsAg content in mice” value turned out to be 3.61 IU/mL in the experiment on HBsAg [1] (setting [6]); 3.90 IU/mL in the experiment with HBsAg [1] (setting [7]); 3.75 IU/mL in the experiment with HBsAg [1] (setting [8]); 3.83 IU/mL with HBsAg [1] (setting [9]); 3.87 IU/mL with HBsAg [1] (setting [10]); 4.51 IU/mL in the experiment with HBsAg [1] (setting [11]). In addition, the “HBsAg content in mice” value in the experiment with HBsAg [1] (30 mg/kg, detection date day 4) is recorded as 3.38 IU/mL; with HBsAg [1] (30 mg/kg, detection date day 7), 3.44 IU/mL; in the experiment on HBsAg [1] (30 mg/kg, detection date day 11), 3.64 IU/mL; in the experiment with HBsAg [1] (30 mg/kg, detection date day 14), 3.40 IU/mL; in the experiment on HBsAg [1] (30 mg/kg, detection date day 18), 3.55 IU/mL; with HBsAg [1] (30 mg/kg, detection date day 21) it was 3.46 IU/mL. Besides, the “HBsAg content in mice” value in the experiment with HBsAg [1] (30 mg/kg, detection date day 25) is 3.37 IU/mL; with HBsAg [1] (30 mg/kg, detection date day 28), 3.53 IU/mL; with HBsAg [1] (30 mg/kg, detection date day -1) it was 4.48 IU/mL.
